Patent publication US6342335B1, “Polymethine compounds, method of producing same, and use thereof” (Yamamoto Chemicals, Inc., priority 1999, dated 2002)

Key:
[1] = Solubility test in methyl ethyl ketone; type: physicochemical; conditions: 25° C. overnight, visual inspection for insoluble matter
Procedure: The solubility of the polymethine compound of the invention in methyl ethyl ketone as well as the solubilities of said known Compound A and Compound B were measured. Solubility measurements were carried out by the following method.
A 5 ml screw tube was charged with 200 mg of each polymethine compound and 1 ml of methyl ethyl ketone and agitated for dissolution with Mix-Rotor at 25° C. overnight. Each sample was visually inspected for insoluble matter. When no insoluble residue was found, the solubility was rated ≧20%. When an insoluble residue was found, the solubility was rated less than 20%.

[2] = Maximum absorption wavelength (λmax) in diacetone alcohol; type: physicochemical
Procedure: The maximum absorption wavelength (λmax) of the polymethine compound of the present invention in diacetone alcohol as well as those of known Compound A and Compound B were measured.

## COCCN1/C(=C\C=C2/CCCC(/C=C/C3=[N+](CCOC)c4c(C)cc(OC)cc4C3(C)C)=C2Cl)C(C)(C)c2cc(OC)cc(C)c21 [Compound (55), 2-(2-{2-chloro-3-[(1,3-dihydro-3,3,7-trimethyl-5-methoxy-1-methoxyethyl-2H-indol-2-ylidene)ethylidene]-1-cyclohexen-1-yl}ethenyl)-3,3,7-trimethyl-5-methoxy-1-methoxyethylindolium=tetrafluoroborate]
[1]
  Solubility (g/ml): ≧20%
[2]
  λmax: 822 nm

## COCCN1/C(=C\C=C2/CCCC(/C=C/C3=[N+](CCOC)c4ccccc4C3(C)C)=C2Cl)C(C)(C)c2ccccc21 [Compound A, reference compound]
[2]
  λmax: 788 nm
